The source of these data is BindingDB's records for doi:10.1016/S0960-894X(97)00090-5 (1997).

Peptide text beside a SMILES is read from it.

The assay can be described thus: The concentration of compound required to prevent 50 percent of cells from adhering to MAdCAM-1.

Broadly, the IC50 is the concentration that gives 50% inhibition. Regarding `CC(=O)N[C@@H](CC(C)C)C(=O)NCC(CC(=O)O)S(=O)(=O)N[C@H](C(N)=O)[C@@H](C)O` (stereo partly drawn) [4-((S)-2-Acetylamino-4-methyl-pentanoylamino)-3-((S)-1-carbamoyl-2-(R)-hydroxy-propylsulfamoyl)-butyric acid], the IC50 was greater than 500 µM. The molecule `CC(=O)N[C@@H](CC(C)C)C(=O)NCC(CC(=O)O)S(=O)(=O)N[C@H](C(N)=O)C(C)C` (stereo partly drawn) [4-((S)-2-Acetylamino-4-methyl-pentanoylamino)-3-((S)-1-carbamoyl-2-methyl-propylsulfamoyl)-butyric acid] came in with an IC50 of 219 µM. `CC(=O)N[C@@H](CC(C)C)C(=O)N[C@@H](CC(=O)O)C(=O)N[C@H](C(N)=O)[C@@H](C)O` [(S)-3-((S)-2-Acetylamino-4-methyl-pentanoylamino)-N-((1S,2R)-1-carbamoyl-2-hydroxy-propyl)-succinamic acid] (Ac-Leu-Asp-Thr-NH2) registered an IC50 of 276 µM. `CC(=O)N[C@@H](CC(C)C)C(=O)N[C@@H](CC(=O)O)C(=O)N[C@H](C(N)=O)C(C)C` [(S)-3-((S)-2-Acetylamino-4-methyl-pentanoylamino)-N-((S)-1-carbamoyl-2-methyl-propyl)-succinamic acid] (Ac-Leu-Asp-Val-NH2) returned an IC50 of 126 µM.
